According to ChEMBL document CHEMBL1139712, “Interaction of N1-unsubstituted and N1-benzenesulfonyltryptamines at h5-HT6 receptors” (Bioorg Med Chem Lett, 2006):
pKi: −log10 of the molar value.

Target: 5-hydroxytryptamine receptor 6 (Homo sapiens, UniProt P50406)
Assay: Displacement of [3H]LSD from human 5HT6 receptor expressed in HEK293 cells
Type: cell-based

Chain of 5-hydroxytryptamine receptor 6 (P50406 whole entry): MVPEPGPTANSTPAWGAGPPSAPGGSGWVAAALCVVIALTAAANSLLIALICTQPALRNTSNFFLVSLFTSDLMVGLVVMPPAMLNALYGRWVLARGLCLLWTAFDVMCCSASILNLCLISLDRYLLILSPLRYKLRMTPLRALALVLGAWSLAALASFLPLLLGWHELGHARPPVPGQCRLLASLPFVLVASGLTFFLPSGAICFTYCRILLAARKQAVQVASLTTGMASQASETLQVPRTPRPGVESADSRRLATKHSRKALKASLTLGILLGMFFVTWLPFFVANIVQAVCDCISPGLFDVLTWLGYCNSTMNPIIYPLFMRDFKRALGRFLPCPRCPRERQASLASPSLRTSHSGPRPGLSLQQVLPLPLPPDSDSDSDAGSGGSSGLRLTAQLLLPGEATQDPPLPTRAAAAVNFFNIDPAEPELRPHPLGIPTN

## COc1cccc2c1c(CCN(C)C)cn2S(=O)(=O)c1ccccc1
  pKi: 7.96

## CN(C)CCc1c2n(c3ccccc13)S(=O)(=O)c1ccccc1-2
  pKi: 6.84

## CN(C)CCc1cn2c3c(cccc13)-c1ccccc1S2(=O)=O
  pKi: 5.35

## COc1ccc2c(CCN(C)C)cn(S(=O)(=O)c3ccccc3)c2c1
  pKi: 7.82

## CCN(CC)CCc1cn(S(=O)(=O)c2ccccc2)c2ccccc12
  pKi: 7.85

## COc1ccc2[nH]cc(CCN(C)Cc3ccccc3)c2c1
  pKi: 6.97

## CCN(CC)CCc1c[nH]c2ccccc12
  pKi: 6.24
